Results published in US20080032978A1, “SOLUBLE EPOXIDE HYDROLASE INHIBITORS” (Arete Therapeutics, Inc., priority 2006, published 2008).

System: not given
Assay: not given
Details: not given

Compound | melting point [°C]
COCCN1CCN(C(=O)c2ccc(NC(=O)NC34CC5CC(CC(C5)C3)C4)cc2)CC1 [Compound 4, 1-Adamantan-1-yl-3-{4-[4-(2-methoxy-ethyl)-piperazine-1-carbonyl]-phenyl}-urea] | 191 to 194
CN1CCN(C(=O)c2ccc(NC(=O)NC34CC5CC(CC(C5)C3)C4)cc2)CC1 [Compound 5, 1-Adamantan-1-yl-3-[4-(4-methyl-piperazine-1-carbonyl)-phenyl]-urea] | 190 to 196
O=C(Nc1ccc(Cl)cc1)Nc1ccc(C(=O)N2CCC(C(=O)O)CC2)cc1 [Compound 9, 1-{4-[3-(4-Chloro-phenyl)-ureido]-benzoyl}-piperidine-4-carboxylic acid] | 238 to 241
O=C(NC1CCC(C(=O)N2CCOCC2)CC1)NC12CC3CC(CC(C3)C1)C2 (stereo not shown) [Compound 11, 1-Adamantan-1-yl-3-[4-(morpholine-4-carbonyl)-cyclohexyl]-urea] | 128 to 131

System: soluble epoxide hydrolase (sEH)
Assay: Fluorescent assay for mouse and human soluble epoxide hydrolase (CMNPC substrate)
Assay type: biochemical
Details: Conc of I 50 nM
From the text: Fluorescent Assay for Mouse and Human Soluble Epoxide Hydrolase Recombinant mouse sEH (MsEH) and human sEH (HsEH) were produced in a baculovirus expression system as previously reported. Grant et al., J. Biol. Chem., 268:17628-17633 (1993); Beetham et al., Arch. Biochem. Biophys., 305:197-201 (1993). The expressed proteins were purified from cell lysate by affinity chromatography. Wixtrom et al., Anal. […] Protein concentration was quantified using the Pierce BCA assay using bovine serum albumin as the calibrating standard. […] Solutions: Bis/Tris HCl 25 mM 7.0 containing 0.1 mg/mL of BSA (buffer […] at 0.25 mM in DMSO. Mother solution of enzyme in buffer A (Mouse sEH at 6 μg/mL and Human sEH at 5 μg/mL). Inhibitor dissolved in DMSO at the appropriate concentration. Protocol: In a black 96 well plate, fill all the wells with 150 μL of buffer A. Add 2 μL of DMSO in well A2 and A3, and then add 2 μL of inhibitor solution in A1 and A4 through A12. Add 150 μL of buffer A in a row A, then mix several time and transfer 150 μL to row B. Repeat this operation up to row H. The 150 μL removed from row H go to the trash. Add 20 μL of buffer A in column 1 and 2, then add 20 μL of enzyme solution to column 3 to 12. Incubate the plate for 5 minutes in the plate reader at 30° C. During incubation prepare the working solution of substrate by mixing 3.68 mL of buffer A (4×0.920 mL) with 266 μL (2×133 μL) of substrate solution). At t=0, add 30 μL of working substrate solution with multi-channel pipette labeled “Briggs 303” and start the reading ([S]final: 5 μM). Read with ex: 330 nm (20 nm) and em: 465 nm (20 nm) every 30 second for 10 minutes. The velocities are used to analyze and calculate the IC50s.

Compound | % I [%]
O=C(Nc1ccc(Cl)cc1)Nc1ccc(C(=O)N2CCOCC2)c(F)c1 [Compound 14, 1-(4-Chloro-phenyl)-3-[3-fluoro-4-(morpholine-4-carbonyl)-phenyl]-urea] | 74
O=C(Nc1ccc(C(F)(F)F)cc1)Nc1ccc(F)c(C(=O)N2CCOCC2)c1 [Compound 16, 1-[4-Fluoro-3-(morpholine-4-carbonyl)-phenyl]-3-(4-trifluoromethyl-phenyl)-urea] | 87
O=C(Nc1ccc(C(=O)N2CCOCC2)cc1)Nc1ccc(C(F)(F)F)cc1 [Compound 17, 1-[4-(Morpholine-4-carbonyl)-phenyl]-3-(4-trifluoromethyl-phenyl)-urea] | 89
CN1CCN(C(=O)c2ccc(NC(=O)Nc3ccc(C(F)(F)F)cc3)cc2)CC1 [Compound 18, 1-[4-(4-Methyl-piperazine-1-carbonyl)-phenyl]-3-(4-trifluoromethyl-phenyl)-urea] | 75
O=C(Nc1ccc(C(F)(F)F)cc1)Nc1ccc(C(=O)N2CCOCC2)c(F)c1 [Compound 22, 1-[3-Fluoro-4-(morpholine-4-carbonyl)-phenyl]-3-(4-trifluoromethyl-phenyl)-urea] | 97
O=C(Nc1ccc(OC(F)(F)F)cc1)Nc1ccc(C(=O)N2CCOCC2)cc1 [Compound 26, 1-[4-(Morpholine-4-carbonyl)-phenyl]-3-(4-trifluoromethoxy-phenyl)-urea] | 88
CN1CCN(C(=O)c2ccc(NC(=O)Nc3ccc(OC(F)(F)F)cc3)cc2)CC1 [Compound 27, 1-[4-(4-Methyl-piperazine-1-carbonyl)-phenyl]-3-(4-trifluoromethoxy-phenyl)-urea] | 84
CN1CCN(C(=O)c2ccc(NC(=O)Nc3ccc(C(F)(F)F)cc3)cc2F)CC1 [Compound 30, 1-[3-Fluoro-4-(4-methyl-piperazine-1-carbonyl)-phenyl]-3-(4-trifluoromethyl-phenyl)-urea] | 88
CC(C)N1CCN(C(=O)c2ccc(NC(=O)Nc3ccc(OC(F)(F)F)cc3)cc2)CC1 [Compound 32, 1-[4-(4-Isopropyl-piperazine-1-carbonyl)-phenyl]-3-(4-trifluoromethoxy-phenyl)-urea] | 92
CC(C)N1CCN(C(=O)c2ccc(NC(=O)Nc3ccc(C(F)(F)F)cc3)cc2)CC1 [Compound 34, 1-[4-(4-Isopropyl-piperazine-1-carbonyl)-phenyl]-3-(4-trifluoromethyl-phenyl)-urea] | 93
CN(CCN1CCOCC1)C(=O)c1ccc(NC(=O)Nc2ccc(C(F)(F)F)cc2)cc1 [Compound 41, N-Methyl-N-(2-morpholin-4-yl-ethyl)-4-[3-(4-trifluoromethyl-phenyl)-ureido]-benzamide] | 93

Same assay, conditions: Conc of I 500 nM

Compound | % I [%]
O=C(Nc1ccc(Cl)cc1)Nc1ccc(C(=O)N2CCOCC2)cc1 [Compound 2, 1-(4-Chloro-phenyl)-3-[4-(morpholine-4-carbonyl)-phenyl]-urea] | 94
O=C(Nc1ccc(Cl)cc1)Nc1cccc(C(=O)N2CCOCC2)c1 [Compound 3, 1-(4-Chloro-phenyl)-3-[3-(morpholine-4-carbonyl)-phenyl]-urea] | 88
COCCN1CCN(C(=O)c2ccc(NC(=O)NC34CC5CC(CC(C5)C3)C4)cc2)CC1 [Compound 4, 1-Adamantan-1-yl-3-{4-[4-(2-methoxy-ethyl)-piperazine-1-carbonyl]-phenyl}-urea] | 96
CN1CCN(C(=O)c2ccc(NC(=O)NC34CC5CC(CC(C5)C3)C4)cc2)CC1 [Compound 5, 1-Adamantan-1-yl-3-[4-(4-methyl-piperazine-1-carbonyl)-phenyl]-urea] | 96
O=C(Nc1ccc(Cl)cc1)Nc1ccc(C(=O)N2CCC(C(=O)O)CC2)cc1 [Compound 9, 1-{4-[3-(4-Chloro-phenyl)-ureido]-benzoyl}-piperidine-4-carboxylic acid] | 64
O=C(Nc1ccc(Cl)cc1)Nc1cccc(C(=O)N2CCC(N3CCOCC3)CC2)c1 [Compound 10, 1-(4-Chloro-phenyl)-3-[3-(4-morpholin-4-yl-piperidine-1-carbonyl)-phenyl]-urea] | 87
O=C(NC1CCC(C(=O)N2CCOCC2)CC1)NC12CC3CC(CC(C3)C1)C2 (stereo not shown) [Compound 11, 1-Adamantan-1-yl-3-[4-(morpholine-4-carbonyl)-cyclohexyl]-urea] | 96
O=C(Nc1ccc(C(F)(F)F)cc1)Nc1cccc(C(=O)N2CCOCC2)c1 [Compound 15, 1-[3-(Morpholine-4-carbonyl)-phenyl]-3-(4-trifluoromethyl-phenyl)-urea] | 99
CN1CCN(C(=O)c2cccc(NC(=O)Nc3ccc(C(F)(F)F)cc3)c2)CC1 [Compound 19, 1-[3-(4-Methyl-piperazine-1-carbonyl)-phenyl]-3-(4-trifluoromethyl-phenyl)-urea] | 94
O=C(NC1CCC(C(=O)N2CCC(C(=O)O)CC2)CC1)NC12CC3CC(CC(C3)C1)C2 (stereo not shown) [Compound 21, 1-[4-(3-Adamantan-1-yl-ureido)-cyclohexanecarbonyl]-piperidine-4-carboxylic acid] | 76
O=C(Nc1ccc(F)cc1)Nc1ccc(C(=O)N2CCOCC2)cc1 [Compound 23, 1-(4-Fluoro-phenyl)-3-[4-(morpholine-4-carbonyl)-phenyl]-urea] | 69
CN1CCN(C(=O)c2ccc(NC(=O)Nc3ccc(F)cc3)cc2)CC1 [Compound 24, 1-(4-Fluoro-phenyl)-3-[4-(4-methyl-piperazine-1-carbonyl)-phenyl]-urea] | 64
CN1CCN(C(=O)c2cc(NC(=O)Nc3ccc(C(F)(F)F)cc3)ccc2F)CC1 [Compound 33, 1-[4-Fluoro-3-(4-methyl-piperazine-1-carbonyl)-phenyl]-3-(4-trifluoromethyl-phenyl)-urea] | 95
CC(C)N1CCN(C(=O)c2cccc(NC(=O)Nc3ccc(C(F)(F)F)cc3)c2)CC1 [Compound 35, 1-[3-(4-Isopropyl-piperazine-1-carbonyl)-phenyl]-3-(4-trifluoromethyl-phenyl)-urea] | 92

Same assay, conditions: Conc of I 5000 nM

Compound | % I [%]
O=C(Nc1ccccc1)Nc1ccc(C(=O)N2CCOCC2)cc1 [Compound 1, 1-[4-(Morpholine-4-carbonyl)-phenyl]-3-phenyl-urea] | 97
CN(CC(=O)O)C(=O)c1ccc(NC(=O)NC23CC4CC(CC(C4)C2)C3)cc1 [Compound 6, {[4-(3-Adamantan-1-yl-ureido)-benzoyl]-methyl-amino}-acetic acid] | 93
CN(CC(=O)O)C(=O)c1cccc(NC(=O)NC23CC4CC(CC(C4)C2)C3)c1 [Compound 7, {[3-(3-Adamantan-1-yl-ureido)-benzoyl]-methyl-amino}-acetic acid] | 90
O=C(Nc1ccc(Cl)cc1)Nc1ccc(C(=O)N2CCC(N3CCOCC3)CC2)cc1 [Compound 8, 1-(4-Chloro-phenyl)-3-[4-(4-morpholin-4-yl-piperidine-1-carbonyl)-phenyl]-urea] | 96
O=C(Nc1cccc(C(=O)N2CCC(C(=O)O)CC2)c1)NC12CC3CC(CC(C3)C1)C2 [Compound 13, 1-[3-(3-Adamantan-1-yl-ureido)-benzoyl]-piperidine-4-carboxylic acid] | 99
